Data on four molecules can be found in patent publication US6642227B2, “Inhibitors of c-Jun N-terminal kinases (JNK) and other protein kinases” (Vertex Pharmaceuticals Incorporated, priority 2001, dated 2003).

Test [1] has as its target human Lck kinase (UniProt P06239). Kind of test: Lck inhibition assay (A: radioactivity-based or B: spectrophotometric coupled-enzyme assay). It counts as biochemical. The note with it: read-out: Lck Activity (Ki rating). A digest of the protocol:
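Two formats. Radiometric: full-length bovine thymus Lck, poly(Glu:Tyr 4:1) 5 mg/ml, 10 μM ATP with ^33P-ATP, HEPES pH 7.6, 10 min preincubation then 20 min at 30 °C, TCA-quenched filter counting. Coupled: 50 nM recombinant human Lck, 150 μM ATP, NADH loss at 340 nm. Ki from competitive-inhibition fit.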

Test [2] deals with T1, human Src kinase (Homo sapiens, UniProt P12931).
T1 construct: full length recombinant human Src kinase; purchased Upstate Biotechnology 14-117; host or cells: baculovirus-infected cells
Kind of test: Src inhibition assay (A: radioactivity-based or B: spectrophotometric coupled-enzyme assay). It counts as biochemical. The conditions noted are these: assay A or B not specified; inhibitor concentration not given. Here is the method: The compounds were evaluated as inhibitors of human Src kinase using either a radioactivity-based assay or spectrophotometric assay.
The compounds were assayed as inhibitors of full length recombinant human Src kinase (from Upstate Biotechnology, cat. no. 14-117) expressed and purified from baculo viral cells. Src kinase activity was monitored by following the incorporation of ^33p from ATP into the tyrosine of a random poly Glu-Tyr polymer substrate of composition, Glu:Tyr=4:1 (Sigma, cat. no. P-0275). The following were the final concentrations of the assay components: 0.05 M HEPES, pH 7.6, 10 mM MgCl2, 2 mM DTT, 0.25 mg/ml BSA, 10 μM ATP (1-2 uCi ^33P-ATP per reaction), 5 mg/ml poly Glu-Tyr, and 1-2 units of recombinant human Src kinase. In a typical assay, all the reaction components with the exception of ATP were pre-mixed and aliquoted into assay plate wells.
Inhibitors dissolved in DMSO were added to the wells to give a final DMSO concentration of 2.5%. The assay plate was incubated at 30° C. for 10 min before initiating the reaction with ^33P-ATP. After 20 min of reaction, the reactions were quenched with 150 μl of 10% trichloroacetic acid (TCA) containing 20 mM Na3PO4. The quenched samples were then transferred to a 96-well filter plate (Whatman, UNI-Filter GF/F Glass Fiber Filter, cat no. 7700-3310) installed on a filter plate vacuum manifold. Filter plates were washed four times with 10% TCA containing 20 mM Na3PO4 and then 4 times with methanol. 200 μl of scintillation fluid was then added to each well. The plates were sealed and the amount of radioactivity associated with the filters was quantified on a TopCount scintillation counter. The radioactivity incorporated was plotted as a function of the inhibitor concentration. The data was fitted to a competitive inhibition kinetics model to get the Ki for the compound.
The ADP produced from ATP by the human recombinant Src kinase-catalyzed phosphorylation of poly Glu-Tyr substrate was quanitified using a coupled enzyme assay (Fox et al (1998) Protein Sci 7, 2249). In this assay one molecule of NADH is oxidised to NAD for every molecule of ADP produced in the kinase reaction. The disappearance of NADH can be conveniently followed at 340 nm.
The following were the final concentrations of the assay components: 0.025 M HEPES, pH 7.6, 10 mM MgCl2, 2 mM DTT, 0.25 mg/ml poly Glu-Tyr, and 25 nM of recombinant human Src kinase. Final concentrations of the components of the coupled enzyme system were 2.5 mM phosphoenolpyruvate, 200 μM NADH, 30 μg/ml pyruvate kinase and 10 μg/ml lactate dehydrogenase.
In a typical assay, all the reaction components with the exception of ATP were pre-mixed and aliquoted into assay plate wells. Inhibitors dissolved in DMSO were added to the wells to give a final DMSO concentration of 2.5%. The assay plate was incubated at 30 C. for 10 min before initiating the reaction with 100 μM ATP. The absorbance change at 340 nm with time, the rate of the reaction, was monitored on a molecular devices plate reader. The data of rate as a function of the inhibitor concentration was fitted to compettive inhibition kinetics model to get the Ki for the compound.

T1 sequence (P12931 whole entry): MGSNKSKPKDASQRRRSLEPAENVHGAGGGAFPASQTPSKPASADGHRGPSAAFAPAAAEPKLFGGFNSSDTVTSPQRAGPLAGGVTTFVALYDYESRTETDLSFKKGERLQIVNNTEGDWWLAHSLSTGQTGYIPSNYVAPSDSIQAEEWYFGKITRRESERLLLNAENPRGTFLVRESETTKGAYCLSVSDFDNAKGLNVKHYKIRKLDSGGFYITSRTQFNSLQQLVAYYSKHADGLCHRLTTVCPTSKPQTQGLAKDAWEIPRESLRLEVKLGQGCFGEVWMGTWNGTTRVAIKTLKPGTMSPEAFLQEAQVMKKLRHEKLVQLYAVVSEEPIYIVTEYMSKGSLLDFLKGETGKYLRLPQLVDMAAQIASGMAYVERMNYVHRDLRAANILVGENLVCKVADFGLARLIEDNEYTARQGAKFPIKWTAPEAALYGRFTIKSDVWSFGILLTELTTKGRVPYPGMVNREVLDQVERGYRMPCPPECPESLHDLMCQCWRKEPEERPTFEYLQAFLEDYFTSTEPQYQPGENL

Consider `CSc1sc(-c2ccnc(Nc3ccccc3)n2)c(-c2ccc(Cl)cc2)c1C#N` [IIa-10, 2-Methylsulfanyl-5-(2-phenylamino-pyrimidin-4-yl)-4-(4-chloro-phenyl)-thiophene-3-carbonitrile], for which the Ki in test [1] is below 100 nM. Also, in test [2], the “Src Activity (percent inhibition class D-F)” value was “F (compounds having an activity designated as “F” provided a provided a percent inhibition of between 67% and 100%)”.

In the case of `CCOc1sc(-c2ccnc(Nc3ccccc3)n2)c(-c2ccc(Cl)cc2)c1C#N` [IIa-11, 2-Ethoxy-5-(2-phenylamino-pyrimidin-4-yl)-4-(4-chloro-phenyl)-thiophene-3-carbonitrile], the Ki in test [1] was in the range of 100 to 1000 nM. Also, in test [2], the “Src Activity (percent inhibition class D-F)” value is “F (compounds having an activity designated as “F” provided a provided a percent inhibition of between 67% and 100%)”.

On to `CSc1sc(-c2ccnc(Nc3ccccc3)n2)c(-c2ccc(C)cc2)c1C#N` [IIa-14, 2-Methylsulfanyl-5-(2-phenylamino-pyrimidin-4-yl)-4-p-tolyl-thiophene-3-carbonitrile], for which the Ki in test [1] is below 100 nM. Besides, the “Src Activity (percent inhibition class D-F)” value in test [2] was “F (compounds having an activity designated as “F” provided a provided a percent inhibition of between 67% and 100%)”.

Regarding `CCOc1sc(-c2ccnc(Nc3ccccc3)n2)c(-c2ccc(C)cc2)c1C#N` [IIa-15, 2-Ethoxy-5-(2-phenylamino-pyrimidin-4-yl)-4-p-tolyl-thiophene-3-carbonitrile], the Ki in test [1] was below 100 nM. Further, the “Src Activity (percent inhibition class D-F)” value in test [2] was “F (compounds having an activity designated as “F” provided a provided a percent inhibition of between 67% and 100%)”.
